Test results as given in publication PMC6132687, “Stem cells are the most sensitive screening tool to identify toxicity of GATA4-targeted novel small-molecule compounds” (Archives of Toxicology, 2018).
Values belong to the compound of their own block, whether it stands above or below them.

How the values were obtained:
[1] = test system: GATA4–NKX2-5 transcriptional synergy; parameters: method as in Välimäki et al. [2017]; conditions: ref Välimäki et al. [2017]; cited from earlier work
NRVCs = test system: NRVCs; parameters: method as in Välimäki et al. [2017]; conditions: concentrations up to 50 µM; ref Välimäki et al. [2017]; cited from earlier work
hiPSC-CMs = experiment: High-content analysis of proliferation (Ki67, BrdU, DNA) in hiPSC-CMs; assay type: cell-based, human; conditions: 24 h; for average intensity of nuclear Ki67 staining / increase in the percentage of Ki67+ cells compared to DMSO: 30 µM
Procedure: (§1) For proliferation studies, the cells were exposed to the test compounds for 24 h and 10 µM BrdU was added to the culture medium for the last 1 h (hiPSCs) or 24 h (hiPSC-CMs) before fixation with 4% paraformaldehyde (PFA) for 15 min at room temperature (rt). The cells were then permeabilized with 0.1% Triton X-100 for 10 min and DNA was hydrolysed with 2 M hydrochloric acid for 30 min at rt followed by neutralization with 0.1 M sodium borate (pH 8.5) for 30 min. Non-specific binding sites were blocked with 4% FBS in phosphate-buffered saline (PBS) for 45 min at rt, whereafter the cells were incubated with anti-Ki67 (1:250) and anti-BrdU (1:250) antibodies for 60 min at rt. Cells were then washed 3 × 5 min with PBS and incubated with Alexa Fluor-conjugated secondary antibodies (1:200) and DAPI (5 µg/ml) for 45 min at rt. In hiPSC-CM cultures, staining with primary antibody against α-actinin (at 1:600) was additionally used to identify myocytes. The plates were imaged and analysed with CellInsight CX5 High Content Screening Platform (Thermo Scientific) using a 10× objective (Olympus UPlanFL N 10×/0.3). For quantification, the cells were first identified based on DAPI fluorescence, which defined the nuclear area for quantifications. In hiPSC-CM cultures, non-myocytes were excluded based on absence of α-actinin staining and nuclear area. The thresholds for α-actinin fluorescence intensity and nuclear area were set manually in each experiment to allow optimal exclusion of non-myocytes. In hiPSC-CMs cultures, the data were collected only from α-actinin positive cells. The thresholds for Ki67+ and BrdU+ cells were also set manually in each experiment as described previously (Mioulane et al. [2012]) to adjust for slight variation in staining intensity.

[2] = test system: extracellular signal-regulated kinase 1/2 signalling; parameters: method as in Ferreira et al. [2017]; conditions: systemic administration in heart-targeted nanoparticles; ref Ferreira et al. [2017]; cited from earlier work
[3] = test system: stretch-induced cardiomyocyte hypertrophy; parameters: method as in Välimäki et al. [2017]; conditions: ref Välimäki et al. [2017]; cited from earlier work
[4] = test system: caspase-3/7 activity in hiPSCs; experiment: High-content analysis of caspase-3/7 activation in hiPSCs; assay type: cell-based, human; conditions: 4-h exposure
Procedure: To study caspase activation, the cells were exposed to the test compounds for 4 h and then incubated with 3–5 µM CellEvent™ Caspase-3/7 Green Detection Reagent solution in PBS with 5% FBS for 50 min and stained with Hoechst for 10 min at 37 °C. Cells were fixed with 4% PFA and scanned with CellInsight using the 10× objective, or alternatively, the staining solution was replaced with fresh 5% FBS in PBS followed by live cell imaging with CellInsight. Hoechst fluorescence was used to identify the cells and define the nuclear area. The intensity of green fluorescence within the nucleus was quantified as a measure of caspase 3/7 activity.

hiPSCs [5] = experiment: High-content analysis of proliferation (Ki67, BrdU, DNA) in hiPSCs; assay type: cell-based, human; conditions: 24 h
Procedure: as §1

hiPSCs [6] = experiment: High-content analysis of cell viability (MitoTracker) in hiPSCs; assay type: cell-based, human; conditions: 24 h
Procedure: To study mitochondrial function using high-content analysis, the cells were plated and treated as in proliferation studies, except that MitoTracker Orange CMTMRos solution (400 nM) was added to the cells for the last 30 min at 37 °C. The accumulation of the MitoTracker probe used is dependent upon mitochondrial membrane potential allowing selective staining of active mitochondria. Following fixation and permeabilization, hiPSC-CMs were in addition stained with anti-α-actinin (Alexa Fluor 488) and DAPI. Cells were identified and hiPSC-CMs discriminated from non-myocytes as described above. MitoTracker intensity corresponding to active mitochondria was analysed in the perinuclear area defined by a 3-pixel ring or a 5-pixel ring around the nucleus in hiPSCs and hiPSC-CMs, respectively. The fluorescence intensity threshold was set manually in each experiment based on the assumption that 2% of control hiPSC-CMs and 5% of control hiPSCs were MitoTracker negative.

- increase in cells positive for the fluorescent caspase reporter ([4]; vs DMSO): 3.2 fold
SMILES: CCN(CC)c1ccc(NC(=O)c2c(-c3ccccc3)noc2C)cc1 [3i-1000]
- GATA4-induced synergistic transactivation of a promoter sequence containing NKX2-5 binding sites [1]: inhibits
- toxicity in NRVCs (NRVCs): no toxicity
- decrease in BrdU+ hiPSC-CMs as compared to DMSO (hiPSC-CMs; P = 0.233): 43%
- average intensity of nuclear Ki67 staining (hiPSC-CMs; hiPSC-CMs): substantial increases
- increase in the percentage of Ki67+ cells compared to DMSO (hiPSC-CMs; hiPSC-CMs): 1.7 fold
- average intensity of nuclear BrdU staining (hiPSC-CMs; hiPSC-CMs): tendency for 3i-1000 to induce a decrease
- average total intensity of DNA staining (hiPSC-CMs; hiPSC-CMs): neither 3i-1000 nor 3i-1047 caused significant changes
- percentage of cells with high total intensity of DNA staining (hiPSC-CMs; hiPSC-CMs): neither 3i-1000 nor 3i-1047 caused significant changes
- pro-hypertrophic ERK1/2 signalling in the hypoxic endocardial layer of the left ventricle [2]: inhibits
- stretch-induced cardiomyocyte hypertrophy [3]: attenuates
- proportion of BrdU-positive cells (hiPSCs [5]; 1 µM): not at 1 µM
- proportion of Ki67 positive cells (hiPSCs [5]; 1 µM): not at 1 µM
- proportion of BrdU-positive cells (hiPSCs [5]; 10 µM): decreased
- proportion of Ki67 positive cells (hiPSCs [5]; 10 µM): decreased
- average intensity of nuclear BrdU staining (hiPSCs [5]): decreased average intensity
- average intensity of nuclear Ki67 staining (hiPSCs [5]): decreased average intensity
- cell numbers (hiPSCs [5]): significantly reduced
- decrease in the average total intensity of DNA staining (hiPSCs [5]): 66%
- decrease in cells with high total DNA staining intensity (G2 phase) (hiPSCs [5]; P = 0.062): 77%
- average MitoTracker intensity in the perinuclear area (hiPSCs [6]; 10 µM): reduced substantially
- increase in the percentage of MitoTracker negative cells as compared to DMSO (hiPSCs [6]; 10 µM): 5.7 fold
- reduction of hiPSC cell numbers (hiPSCs [6]; 10 µM): 98%

- effect on caspase-3/7 activity [4]: no effect
SMILES: CCN(CC)c1ccc(NC(=O)c2c(C)noc2-c2cc(C)on2)cc1 [3i-1047]
- average intensity of nuclear Ki67 staining (hiPSC-CMs; hiPSC-CMs): substantial increases
- increase in the percentage of Ki67+ cells compared to DMSO (hiPSC-CMs; hiPSC-CMs): 1.5 fold
- average intensity of nuclear BrdU staining (hiPSC-CMs; hiPSC-CMs): no effect
- average total intensity of DNA staining (hiPSC-CMs; hiPSC-CMs): neither 3i-1000 nor 3i-1047 caused significant changes
- percentage of BrdU+ cells (hiPSC-CMs; hiPSC-CMs): no effect
- percentage of cells with high total intensity of DNA staining (hiPSC-CMs; hiPSC-CMs): neither 3i-1000 nor 3i-1047 caused significant changes
- corresponding average staining intensities (Ki67, BrdU, DNA) (hiPSCs [5]; 1 or 10 µM): no effect
- percentage of BrdU+ cells (hiPSCs [5]; 1 or 10 µM): no effect
- percentage of Ki67+ cells (hiPSCs [5]; 1 or 10 µM): no effect
- percentage of high DNA cells (hiPSCs [5]; 1 or 10 µM): no effect
- effect on MitoTracker staining (hiPSCs [6]): did not affect MitoTracker staining
